Assay results taken from patent US12480155B2, “Nicking enzymes” (LumiraDx UK Ltd., priority 2019, dated 2025).
Like-named read-outs stand apart in the source and are kept apart here.

Columns and labels:
[1] = system: STAR reaction (Nt.BstNBI nicking endonuclease, Bst X DNA polymerase; Chlamydia trachomatis cryptic plasmid target)
Description: The STAR mixture contained two primers, polymerase, and nicking enzyme (referenced above). Reactions were performed in a final volume of 25 μl, including 1.0 μM of the forward primer, 0.5 μM of the reverse primer, 0.25 μM molecular beacon, 10 μl STAR Master Mix and 5 μl DNA sample. STAR master mix contained the following reagents; 12 mM MgSO4, 90 mM Tris-HCl (pH 8.5), 300 μM each dNTPs, 20 mM (NH4)2SO4, 15 mM Na2SO4, 2 mM. DTT, 0.01% Triton X-100, 15 U nicking endonuclease, 60 U polymerase. […] The temperature of the reactions was controlled, with a relatively high initiation temperature followed by a gradual drop over time, for optimal STAR activity. The initiation phase, primarily involving polymerase activity, was at the elevated temperature of 60° C. for 15 seconds. […] Amplification and STAR product detection were performed with the Agilent Mx3005P qPCR apparatus (Agilent).

[2] = system: Nb.BbvCI nicking endonuclease; experiment: Nicking Enzyme Activity Assay (NAA) with Nb.BbvCI under isothermal condition; assay type: biochemical; conditions: 40 ml RbCl (so in the source), 1x CutSmart Buffer, isothermal 50 °C; four replicates vs control
Description: The assay comprises use of the following oligonucleotide probe (DLPFQ) (SEQ ID NO: 10 5′/56-FAM/[…].[…]/3BHQ_1/-3′). The oligonucleotide forms a molecular beacon-like probe in solution. […] Upstream of the nicking enzyme binding site is a 5′ fluorophore.
The reactions are run using an isothermal temperature profile, 50° C. […] Each reaction assessed kinetics, enzyme performance, and signal fluorescence.

Bst X DNA polymerase = conditions: 15 mM Rb2SO4 vs no added rubidium; STAR temperature profile; six replicates
Description: The NEF has a 5′ fluorophore, POQ has a 3′ quenching moiety that absorbs the photons released by the 5′ template oligo fluorophore. The PO serves as the initiation site for a strand displacement polymerase to extend and displace the quenching oligo allowing for fluorescence to be generated due to the quenching oligo no longer being in proximity to the template oligo.
The basic PAA mixture contains a template oligo (NEF) with a 5′-FAM modification, a priming oligo (PO) which anneals to the template's 3-end, a quenching oligo (POQ) with a 3′-BHQ1 modification which anneals to the template's 5′-end, and a polymerase (referenced above). The reactions were performed in a final volume of 25 μl, including 0.2 μM NEF, 0.3 μM PO, 0.7 μM POQ, and 1×PAA Master Mix. At a 1× concentration, the PAA master mix contained the following reagents; 12.5 mM MgSO4, 90 mM Tris-HCl (pH 8.5), 300 μM each dNTPs, 15 mM NH4CH3CO2, 15 mM Na2SO4, 5 mM DTT, 0.2 mg/ml BSA, 0.02% Triton X-100, 15 mM Rb2SO4, 10 mM L-Threonine, and 0.03 U/μl polymerase. […] The PAA was performed with the Agilent Mx3005P qPCR apparatus (Agilent). […] Each reaction assessed amplification kinetics, enzyme performance, and signal fluorescence.

[3] = system: Nt.BstNBI nicking endonuclease; conditions: 15 mM Rb2SO4 vs no rubidium; STAR temperature profile; six replicates
Description: The template oligo has a nicking site for nicking endonuclease activity and downstream a 3′ quencher. The priming oligo has the complementary nicking site sequence and a 5′ fluorophore. When in solution the two form a complex that completes a nicking binding site allowing for the nicking endonuclease to cut. The oligonucleotide quencher 5′ of the nick site, following a nick by a nicking endonuclease, now has a low melting temperature. Because the reaction is performed above this melting temperature, the shortened fragment containing the quencher is released from the complex generating fluorescence.
The basic NAA mixture contained the template oligo (NEQ) with a 3′ modification, and the priming oligo (POF) with a 5′-FAM modification which anneals to the template, and a nicking endonuclease (referenced above). The reactions were performed in a final volume of 25 μl, including 1.3 μM NEQ, 1.6 μM POE, and 1×NAA Master Mix. At a 1× concentration, the NAA master mix contained the following reagents; 12.5 mM MgSO4, 90 mM Tris-HCl (pH 8.5), 15 mM NH4CH3CO2, 15 mM Na2SO4, 5 mM DTT, 0.2 mg/ml BSA, 0.02% Triton X-100, 15 mM Rb2SO4, 10 mM L-Threonine, and 0.008 U/μl nicking endonuclease. […] The NAA was performed with the Agilent Mx3005P qPCR apparatus (Agilent). […] Each reaction assessed amplification kinetics, enzyme performance, and signal fluorescence.

[4] = system: Nb.BsmI nicking endonuclease; conditions: 20 mM Rb2SO4 vs control; STAR temperature profile; average of six replicates
Description: The modified NAA was run with and without rubidium using the following conditions.
The Nb.BsmI recognition sequence is GAATG_CN. (The underscore indicates the nick site). The oligonucleotide contains self-complementary sequences and forms a molecular beacon-like probe in solution. The probe has a nicking site for nicking endonuclease activity and a 3′ quencher. Upstream of the nicking binding site is a 5′ fluorophore. When in solution a complex is formed that completes a nicking binding site allowing for the nicking endonuclease to nick. Nb.BsmI is a bottom cutter and therefore will cut on the opposite strand of the nicking binding site. The oligonucleotide quencher 3′ of the nick site, following a nick by a nicking endonuclease, now has a low melting temperature. Because the reaction is performed above this melting temperature, the shortened fragment containing the quencher is released from the complex, generating fluorescence.
The basic NAA mixture contained the probe oligo (DLPFQ) with a 5′-FAM modification and a 3′-BHQ1 modification which folds on itself, and a nicking endonuclease (referenced above). […] The reactions were performed in a final volume of 25 μl, including different concentrations of DLPFQ depending on the nicking enzyme used, and 1×NAA Master Mix. […] Each reaction assessed kinetics, enzyme performance, and signal fluorescence.

[5] = system: isothermal amplification reaction (nicking endonuclease, polymerase; primers of Example 1)
Description: The basic mixture contains two primers, polymerase, and nicking enzyme (referenced above). […] The reactions were performed in a final volume of 25 μM, including 1.0 μM of the forward primer, 0.5 μM of the reverse primer, 0.25 μM molecular beacon, 10 μM Master Mix and 5 μl DNA sample. The master mix contained the following reagents; 12.5 mM MgSO4, 90 mM Tris-HCl (pH 8.5), 300 μM each dNTPs, 40 mM NH4OAc, 15 mM Na2SO4, 2 mM DTT, 0.01% Triton X-100, 15U nicking endonuclease, 60 U polymerase. […] Amplification and product detection were performed with the Agilent Mx3005P qPCR apparatus (Agilent).

## CC(=O)[O-].[K+] [potassium acetate]
[1]; salts replaced in buffer, various concentrations
  effect on STAR (ion replacement): neither of which improved STAR

## [Cl-].[Rb+] [rubidium chloride]
[2]
  nicking enzyme activity (fluorescence): increases the activity of Nb.BbvCI nicking endonuclease

## O=S(=O)([O-])[O-].[Rb+].[Rb+] [rubidium sulfate]
[1]; 50 mM rubidium sulfate vs control group
  grouping of replicate sample results in STAR: more tightly grouped than with the control group
[1]; 50 mM rubidium sulfate vs no rubidium control
  effect on STAR amplification: detrimental to amplification, slowing the reaction
[1]; 10 to 20 mM rubidium sulphate vs no rubidium control, 100 copies target
  effect on STAR reactions: improved STAR reactions
Bst X DNA polymerase
  polymerase activity (fluorescence): does not change the activity of the polymerase in any significant manner
[3]
  nicking enzyme activity (fluorescence): significantly increased the activity of the nicking enzyme
[4]
  nicking enzyme activity (fluorescence): increases the activity of this other nicking endonuclease
[5]; 15 mM of rubidium sulfate (so in the source), compared with 100 copy reaction without rubidium sulfate
  performance of 10 copy isothermal reaction: made the 10 copy reaction perform similar to the 100 copy reaction without rubidium sulfate
[5]; 20 mM rubidium sulfate vs without, 100 and 10 copies template, average of 4 replicates
  effect on isothermal amplification reaction: improves the isothermal reaction
[5]; with vs without rubidium, data not shown
  tightness of replicates in isothermal amplification: tighter than without rubidium

## CC(=O)[O-].CC(=O)[O-].CC(=O)[O-].[Sc+3] [scandium acetate]
[1]; all concentrations
  effect on STAR (ion replacement): fully inhibited the reaction

## CC(=O)[O-].CC(=O)[O-].[Sr+2] [strontium acetate]
[1]; 10 mM
  effect on STAR (ion replacement): possibly slightly slowed the reaction
[1]; 20 and 50 mM
  effect on STAR (ion replacement): fully inhibited the reaction
